From US12208096B2, “Effective treatment of depression in patients having impaired learning and/or memory or certain EEG characteristics with a benzylpiperazine-aminopyridine agent” (Alto Neuroscience, Inc., priority 2022, dated 2025)

Experiments:
[1] = system: patients with major depression; conditions: total daily doses of 40 mg, 80 mg or 120 mg; 18 patients on active drug; cited from earlier work
patients with MDD = assay: Open-label Phase 2 clinical trial of NSI-189 as monotherapy or adjunctive treatment in depression (MADRS); format: in vivo, human
Protocol: These patients also underwent a more comprehensive cognitive battery than in the prior Phase 2 study. As above, MMRM analyses were applied on MADRS change from baseline scores in MDD patients. […] In this study, the current episode was determined by the either the prior two years, or the period within the prior two years since the last time at which two continuous months of euthymia occurred, whichever was shorter. Insufficient response to an antidepressant in the current episode was defined as less than a 50% reduction in symptoms (e.g., based on the total score on the MADRS or HDRS).
All analyses used a z=−0.75 cutoff to identify poor cognition patients (with z-scores determined with reference to a separate healthy population) in order to ensure that poor cognition patients are impaired in those tasks.
An overall cognitive performance variable comprised of measures of executive function (digit-symbol substitution task, Wisconsin card sorting task, trail making task, Corsi blocks, verbal fluency), information processing speed (flanker task, choice RT, simple RT) and verbal learning and/or memory was analyzed.
Learning and/or memory was assessed with a word list task, in which patients are given the word lists on five learning trials, and then memory is assessed through recall of those word lists immediately after learning and again after an approximately 20 minute delay (including after inclusion of a new distractor list of words). This computer-implemented task is named VM-REACT (Verbal memory recall computerized test) and is further described in Naparstek et al., J Psychiatr Res., 2019, 114:170-177 (PMID 31096177).
Another way of analyzing the PSD is through the observation that the background trend in the data can be quantified as a measure of background neural activity and has a 1/f relationship (where f is frequency). One way of quantifying this signal is termed the aperiodic exponent, which is estimated as the negative slope for the line of best fit over the 1-50 Hz range of the power spectral density in the log-log space (T. Donoghue, et al., Nat Neurosci, 23(12): 1655-1665 December 2020). Channel-wise correlation of the aperiodic exponent with treatment outcome (as percentage change in MADRS scores from baseline) was examined.

[2] = system: patients having major depressive disorder; assay: First Phase 2 clinical trial of NSI-189 in major depressive disorder (220 patients, SPCD design), original and retrospective analysis; format: in vivo, human
Protocol: A subsequent Phase 2 study was then performed on 220 patients with major depression (11). […] Treatment in either stage was given for six weeks. This design is termed a Sequential Parallel Clinical Design (SPCD) and is analyzed statistically by combining results in a pre-defined manner for outcomes differences between relevant groups (e.g., drug vs. placebo) in each of the stages individually. There are two depression outcome measures accepted by the FDA for the evaluation of adults. See the June 2018 FDA draft guidance entitled “Major Depressive Disorder: Developing Drugs for Treatment.” These are the Montgomery-Asberg Depression Rating Scale (MADRS), which was the primary outcome in this study, as well as the Hamilton Depression Rating Scale (HDRS) which was a key secondary outcome measure.
The remaining patients continued their treatment for stage 2 of the trial. Treatment in either stage was given for six weeks. Patients were eligible for study participation if they were between the ages of 18-60 years, with current major depressive disorder of at least 8 weeks duration according to the DSM-5, as diagnosed by the Structured Clinical Interview for the DSM-5 clinical trial version (SCID-5-CT) during the screen and remote assessment visits, and if they were scored at least 20 at screen, remote assessment, and baseline visits on the Montgomery-Asberg Depression Rating Scale (MADRS). The phase 2 study collected cognitive task performance data prior to treatment, and then again after both stage 1 and stage 2 of the treatment protocol. The purpose of doing so was to determine whether treatment with this compound results in improvement in cognitive functioning, as measured by a variety of behavioral measures.
Prior to the inventor's retrospective analysis, there was no consideration as to using behavioral measures to predict treatment outcome nor was there any analysis conducted to this effect. There was no consideration of using cognitive performance as a predictor but only as an outcome measure. […] The tasks in this battery included a simple reaction time (RT) task, a choice RT task, a one-back working memory task, and a visual learning task. Moreover, given the conversion to z-score, a composite cognitive task performance score could be computed by averaging the z-scores for each of the four tasks in the battery. Analyses focused on the MADRS primary outcome of the study. Statistical analyses focused on the complete trial (incorporating both stage 1 and stage 2 outcomes), using the SPCD analytic approach reported in the original study and thus aligned could be compared with the original statistical analysis plan. Mixed models repeated measures (MMRM) were used to predict change from baseline (at 2, 4, and 6 weeks) in clinical scores and included covariates for group (i.e., poor versus good cognition as defined by a given measure of interest), time, time x group, time x baseline MADRS and baseline MADRS. These covariates likewise were used in the original study, and thus results here can be compared with the all-comer results reported previously. Statistical significance was thus assessed on the primary outcome (MADRS change from baseline at 6 weeks across the SPCD design). The change in MADRS scores in the all corner (i.e. original sample) analysis is shown in FIG. 1(A) for comparison to subgroups as defined by cognitive task performance.
To examine the effect of baseline cognition on clinical outcomes, individuals were split at the mean of the average z-score across all tasks (thus a cognition composite score). This generates two groupings, which were termed poor cognition (below mean, negative z scores) or good cognition (above mean, positive z scores). The poor cognition group can also be termed to be cognitively impaired. […]

[3] = system: subjects with moderate to severe depression; assay: Additional clinical trial with NSI-189 (20 subjects, MADRS); format: in vivo, human; conditions: 80 mg (40 mg BID)
patients with PTSD = assay: Open-label Phase 2 clinical trial of NSI-189 in PTSD (CAPS-5); format: in vivo, human; conditions: 40 mg BID, recall index cutoff z<=-0.5, week 4
Excerpt: These patients underwent the same cognitive battery as patients with depression. As above, MMRM analyses were applied on the Clinician Administered PTSD Scale for DSM-5 (CAPS-5) change from baseline scores in PTSD patients. This analysis included 84 patients.
The overall sample using MMRMs that included core terms for time, baseline, group (i.e., poor versus good cognition as defined by a given measure of interest), time x group and time by baseline. The analyses shown in FIG. 12 used a z≤−0.5 cutoff on recall index scores in order to identify poor cognition patients (with z-scores determined with reference to a separate healthy population identically as for the depressed patients above). This cutoff ensured that poor cognition patients are impaired in this task.

[4] = system: patients having major depressive disorder; conditions: cited from earlier work
[5] = 80 mg, regardless of how the clinical population was defined
[6] = all patients, 40 mg or 80 mg daily vs placebo, full SPCD analysis or each stage alone

## CC(C)CCNc1ncccc1C(=O)N1CCN(Cc2ccccc2)CC1 [NSI-189, (4-benzylpiperazin-1-yl)-[2-(3-methylbutylamino)pyridin-3-yl]methanone]
[1]
  antidepressant efficacy: promising evidence for potential antidepressant efficacy
Patients with MDD; 80 mg (40 mg BID), CPFQ>25 vs <=25
  MADRS outcome, self-reported poor versus good cognition: no significant differences
Patients with MDD; 80 mg (40 mg BID), moderate or greater vs minimal or less diminishment
  MADRS outcome, subjective diminishment of memory recall (CPFQ item): not predictive of outcome
Patients with MDD; 80 mg (40 mg BID), overall cognitive composite cutoff z=-0.75
  reduction in the MADRS score, poor versus good cognition patients: significantly better improvement in depressive symptoms
Patients with MDD; 80 mg (40 mg BID), week eight, p=0.004
  Cohen's d, MADRS outcome, poor delayed recall versus good: 0.61
Patients with MDD; 80 mg (40 mg BID), week eight, p=0.010
  Cohen's d, MADRS outcome, poor immediate recall versus good: 0.56
Patients with MDD; 80 mg (40 mg BID), week four, p=0.045
  Cohen's d, MADRS outcome, poor delayed recall versus good: 0.40
Patients with MDD; 80 mg (40 mg BID), week six, p=0.001
  Cohen's d, MADRS outcome, poor delayed recall versus good: 0.67
Patients with MDD; 80 mg (40 mg BID), week six, p=0.022
  Cohen's d, MADRS outcome, poor immediate recall versus good: 0.48
Patients with MDD; 80 mg (40 mg BID), week two, p=0.028
  Cohen's d, MADRS outcome, poor delayed recall versus good: 0.43
Patients with MDD; 80 mg, EEG resting eyes closed, split at the median
  change in MADRS from baseline, low versus high aperiodic exponent patients: significantly better depression outcome
Patients with MDD; [5]
  remission rates, poor versus good learning and/or memory patients: approximately double
  response rates, poor versus good learning and/or memory patients: approximately double
Patients with MDD; poor learning and/or memory patients, 80 mg open label, across definitions of the clinical population
  response rates on the MADRS (50% or greater reduction): 60-82%
[2]; 80 mg arm vs placebo, poor cognition group (cognitive composite score), SPCD analysis Stage 1 and Stage 2, p=0.014
  drug-placebo effect size Cohen's d, change in MADRS scores: 0.58
[2]; good cognition group, 40 mg or 80 mg, p=0.25
  change in MADRS scores, either drug arm versus placebo: no significant differences
[2]; poor cognition group, p=0.39
  change in MADRS scores, 40 mg group versus placebo: not significant
[2]; poor cognition group, stage 1, week 2, p=0.045
  Cohen's d, change in MADRS, 80 mg arm versus placebo: 0.55
[2]; poor cognition group, stage 1, week 4, p=0.01
  Cohen's d, change in MADRS, 80 mg arm versus placebo: 0.7
[2]; poor cognition group, stage 1, week 6, p=0.03
  Cohen's d, change in MADRS, 80 mg arm versus placebo: 0.59
[2]; poor self-reported cognition, CPFQ score >25
  change in MADRS scores, 80 mg versus placebo: no difference is seen between treatment arms
[3]; poor verbal memory z<-0.5, week 8
  MADRS improvement, poor versus good cognition patients: trend
[3]; poor verbal memory z<-0.5, weeks 2, 4, and 6
  MADRS improvement, poor versus good cognition patients: large and statistically significantly greater improvement
Patients with PTSD
  CAPS-5 change from baseline, poor versus good cognition: significantly greater reduction in PTSD symptoms
[4]; 40 mg dose, not corrected for multiple comparisons
  effects on several secondary measures compared to placebo: nominally significant effects
[4]; 80 mg daily dose, all patients
  efficacy on any study measure: did not demonstrate efficacy on any study measure
[4]; [6]
  antidepressant efficacy on the HDRS key secondary measure: failed to demonstrate any evidence of antidepressant efficacy
  antidepressant efficacy on the MADRS primary outcome measure: failed to demonstrate any evidence of antidepressant efficacy
[4]; all-comer population, prior Phase 2 study
  all-comer drug placebo difference, Cohen's d: ~0.2
